Source: PubChem BioAssay AID248 (DTP/NCI, 2004)
Where “and” joins values, the source holds several entries; their conditions need not be identical. Identical values can stand only once. Toxic doses and inconclusive results are not listed. Rule as the data show it: active = T/C of 150% or more; inactive = T/C below 125%.

Tested on: L1210 leukemia ip in BDF1 mice, survival T/C
Experiment: NCI In Vivo Anticancer Drug Screen. Data for tumor model L1210 Leukemia (intraperitoneal) in B6D2F1 (BDF1) mice
Details: endpoint: mean survival time, higher = longer survival
Method in brief: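 Tumor cells were implanted, animals were treated, and survival was followed. The result divides the treated measurement by the vehicle-control measurement.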

[1] = dose: 25.0 mg/kg/injection, schedule: Q01DX009 (ip), vehicle: saline with Tween-80
[2] = dose: 25.0 mg/kg/injection, schedule: Q04DX003 (ip), vehicle: saline with Tween-80
[3] = dose: 50.0 mg/kg/injection, schedule: Q04DX003 (ip), vehicle: saline with Tween-80
[4] = dose: 100.0 mg/kg/injection, schedule: Q01DX009 (ip), vehicle: Klucel (hydroxypropylcellulose) (HPC)
[5] = dose: 100.0 mg/kg/injection, schedule: Q04DX003 (ip), vehicle: Klucel (hydroxypropylcellulose) (HPC)
[6] = dose: 200.0 mg/kg/injection, schedule: Q01DX009 (ip), vehicle: Klucel (hydroxypropylcellulose) (HPC)
[7] = dose: 200.0 mg/kg/injection, schedule: Q04DX003 (ip), vehicle: Klucel (hydroxypropylcellulose) (HPC)
[8] = dose: 400.0 mg/kg/injection, schedule: Q01DX009 (ip), vehicle: Klucel (hydroxypropylcellulose) (HPC)
[9] = dose: 400.0 mg/kg/injection, schedule: Q04DX003 (ip), vehicle: Klucel (hydroxypropylcellulose) (HPC)
[10] = dose: 100.0 mg/kg/injection, schedule: Q04DX003 (ip), vehicle: saline with Tween-80
[11] = dose: 100.0 mg/kg/injection, schedule: Q04DX002 (ip), vehicle: saline with Tween-80
[12] = dose: 200.0 mg/kg/injection, schedule: Q04DX002 (ip), vehicle: saline with Tween-80
[13] = dose: 50.0 mg/kg/injection, schedule: Q01DX009 (ip), vehicle: saline with Tween-80
[14] = dose: 100.0 mg/kg/injection, schedule: Q01DX009 (ip), vehicle: saline with Tween-80
[15] = dose: 200.0 mg/kg/injection, schedule: Q01DX009 (ip), vehicle: saline with Tween-80
[16] = dose: 100.0 mg/kg/injection, schedule: Q04DX002 (ip), vehicle: saline
[17] = dose: 200.0 mg/kg/injection, schedule: Q04DX002 (ip), vehicle: saline

Measured: T/C

C=CCCN1CCCC1
inactive: dose: 1.5 mg/kg/injection, schedule: Q01DX009 (ip), vehicle: saline with Tween-80 100 % of control | dose: 3.0 mg/kg/injection, schedule: Q01DX009 (ip), vehicle: saline with Tween-80 93 % of control | dose: 6.0 mg/kg/injection, schedule: Q01DX009 (ip), vehicle: saline with Tween-80 103 % of control | dose: 8.0 mg/kg/injection, schedule: Q04DX003 (ip), vehicle: saline with Tween-80 97 % of control and 105 % of control | dose: 12.0 mg/kg/injection, schedule: Q01DX009 (ip), vehicle: saline with Tween-80 98 % of control | dose: 12.0 mg/kg/injection, schedule: Q04DX003 (ip), vehicle: saline with Tween-80 100 % of control and 105 % of control | dose: 18.0 mg/kg/injection, schedule: Q04DX003 (ip), vehicle: saline with Tween-80 103 % of control and 110 % of control | [1] 88 % of control | [2] 103 % of control | [3] 109 % of control

CN1C2C=C(c3ccccc3)C(Br)C1CC2 (configuration not stated)
inactive: dose: 20.0 mg/kg/injection, schedule: Q04DX003 (ip), vehicle: saline with Tween-80 95 % of control | dose: 40.0 mg/kg/injection, schedule: Q04DX003 (ip), vehicle: saline with Tween-80 97 % of control | dose: 75.0 mg/kg/injection, schedule: Q01DX001 (ip), vehicle: saline 102 % of control | dose: 150.0 mg/kg/injection, schedule: Q01DX001 (ip), vehicle: saline 98 % of control

O=C(NC(=S)Nc1ccccc1C(F)(F)F)c1ccccc1F
inactive: [4] 98 % of control and 103 % of control | dose: 100.0 mg/kg/injection, schedule: Q04DX002 (ip), vehicle: Klucel (hydroxypropylcellulose) (HPC) 105 % of control and 110 % of control | [5] 93 % of control | [6] 98 % of control and 111 % of control | dose: 200.0 mg/kg/injection, schedule: Q04DX002 (ip), vehicle: Klucel (hydroxypropylcellulose) (HPC) 105 % of control and 90 % of control | [7] 90 % of control | [8] 94 % of control and 108 % of control | dose: 400.0 mg/kg/injection, schedule: Q04DX002 (ip), vehicle: Klucel (hydroxypropylcellulose) (HPC) 94 % of control and 113 % of control | [9] 91 % of control

Brc1ccccc1N=Nc1ccccc1Br
inactive: [10] 92 % of control | dose: 200.0 mg/kg/injection, schedule: Q04DX003 (ip), vehicle: saline with Tween-80 91 % of control | dose: 400.0 mg/kg/injection, schedule: Q04DX003 (ip), vehicle: saline with Tween-80 107 % of control

CC1CCCC(CN=Cc2ccc(O)cc2O)[N-]1.CC1CCCC(CN=Cc2ccc(O)cc2O)[N-]1.[Ni+2] (configuration not stated)
inactive: [2] 101 % of control | [3] 103 % of control | [10] 98 % of control

COc1cc(C=Nc2ccc(C)c(C)c2)ccc1OC(=O)c1ccccc1
inactive: [11] 106 % of control | [12] 106 % of control | dose: 400.0 mg/kg/injection, schedule: Q04DX002 (ip), vehicle: saline with Tween-80 95 % of control

CCCCCCC/C=C/c1c(C)[nH]c2ccccc2c1=O
inactive: [5] 96 % of control | [7] 93 % of control | [9] 89 % of control

c1ccc(NC2=NCCO2)nc1
inactive: [13] 100 % of control | [14] 94 % of control | [15] 102 % of control

Cn1nc(C(=O)O)c2c(N)ncnc21
inactive: dose: 50.0 mg/kg/injection, schedule: Q04DX002 (ip), vehicle: saline 103 % of control | [16] 95 % of control | [17] 98 % of control

NC(=NCCO)C(N)=NCCO
inactive: dose: 100.0 mg/kg/injection, schedule: Q01DX009 (ip), vehicle: saline 102 % of control | dose: 100.0 mg/kg/injection, schedule: Q04DX003 (ip), vehicle: saline 96 % of control | dose: 200.0 mg/kg/injection, schedule: Q01DX009 (ip), vehicle: saline 94 % of control | dose: 200.0 mg/kg/injection, schedule: Q04DX003 (ip), vehicle: saline 96 % of control | dose: 400.0 mg/kg/injection, schedule: Q01DX009 (ip), vehicle: saline 94 % of control | dose: 400.0 mg/kg/injection, schedule: Q04DX003 (ip), vehicle: saline 100 % of control

Cc1nc(Cl)c(C(N)=O)nc1C
inactive: [1] 91 % of control | [13] 96 % of control | [14] 96 % of control and 97 % of control

COC(=O)c1ccc(C(=O)O)nc1
inactive: [4] 104 % of control | [6] 94 % of control | [8] 102 % of control

ClC1=C2C=CC=CC2C(Cl)(c2ccccc2)C2=C1C(Cl)=C1C=CC=CC1C2(Cl)c1ccccc1 (configuration not stated)
inactive: dose: 100.0 mg/kg/injection, schedule: Q01DX001 (ip), vehicle: Klucel (hydroxypropylcellulose) (HPC) 106 % of control | dose: 200.0 mg/kg/injection, schedule: Q01DX001 (ip), vehicle: Klucel (hydroxypropylcellulose) (HPC) 101 % of control | dose: 400.0 mg/kg/injection, schedule: Q01DX001 (ip), vehicle: Klucel (hydroxypropylcellulose) (HPC) 101 % of control

CN(C)c1ccc(-c2cc(C(=O)O)c3cc4ccccc4cc3n2)cc1
inactive: [13] 91 % of control | [14] 96 % of control | [11] 92 % of control | [15] 88 % of control | [12] 92 % of control

CCCCNS(=O)(=O)c1ccc(OC)c(N)c1
inactive: [4] 98 % of control | [6] 104 % of control | [8] 97 % of control

CN=C(NC)N/N=C(C)\C=N\NC(=NC)NC
active: dose: 30.0 mg/kg/injection, schedule: Q01DX Z (ip), vehicle: methylcellulose (MC) 160 % of control
inactive: dose: 1.0 mg/kg/injection, schedule: Q01DX Z (ip), vehicle: methylcellulose (MC) 103 % of control | dose: 2.0 mg/kg/injection, schedule: Q01DX Z (ip), vehicle: methylcellulose (MC) 92 % of control | dose: 4.0 mg/kg/injection, schedule: Q01DX Z (ip), vehicle: methylcellulose (MC) 101 % of control | dose: 8.0 mg/kg/injection, schedule: Q01DX Z (ip), vehicle: methylcellulose (MC) 104 % of control | dose: 15.0 mg/kg/injection, schedule: Q01DX Z (ip), vehicle: saline 107 % of control | dose: 15.0 mg/kg/injection, schedule: Q01DX Z (oral), vehicle: methylcellulose (MC) 104 % of control | dose: 30.0 mg/kg/injection, schedule: Q01DX Z (ip), vehicle: saline 97 % of control | dose: 30.0 mg/kg/injection, schedule: Q01DX Z (oral), vehicle: methylcellulose (MC) 96 % of control | dose: 60.0 mg/kg/injection, schedule: Q01DX Z (ip), vehicle: saline 103 % of control | dose: 60.0 mg/kg/injection, schedule: Q01DX Z (oral), vehicle: methylcellulose (MC) 107 % of control | dose: 120.0 mg/kg/injection, schedule: Q01DX Z (ip), vehicle: saline 96 % of control | dose: 120.0 mg/kg/injection, schedule: Q01DX Z (oral), vehicle: methylcellulose (MC) 104 % of control | dose: 240.0 mg/kg/injection, schedule: Q01DX Z (ip), vehicle: saline 100 % of control | dose: 240.0 mg/kg/injection, schedule: Q01DX Z (oral), vehicle: methylcellulose (MC) 95 % of control | dose: 480.0 mg/kg/injection, schedule: Q01DX009 (oral), vehicle: saline 94 % of control | dose: 480.0 mg/kg/injection, schedule: Q01DX Z (oral), vehicle: methylcellulose (MC) 96 % of control | dose: 960.0 mg/kg/injection, schedule: Q01DX009 (oral), vehicle: saline 94 % of control

O=C(O)CCNC(=O)c1ccccc1
inactive: dose: 87.5 mg/kg/injection, schedule: Q04DX003 (ip), vehicle: saline 97 % of control | dose: 175.0 mg/kg/injection, schedule: Q04DX003 (ip), vehicle: saline 98 % of control | dose: 350.0 mg/kg/injection, schedule: Q04DX003 (ip), vehicle: saline 93 % of control

CCCCCOC(=O)C(C)(O)C(Cl)c1ccccc1 (configuration not stated)
inactive: [16] 102 % of control and 106 % of control | [17] 98 % of control and 103 % of control | dose: 400.0 mg/kg/injection, schedule: Q04DX002 (ip), vehicle: saline 91 % of control | dose: 600.0 mg/kg/injection, schedule: Q04DX002 (ip), vehicle: saline 117 % of control

Cc1ccc(C(=O)CCc2ccccc2)cc1
inactive: dose: 100.0 mg/kg/injection, schedule: Q04DX003 (ip), vehicle: other 92 % of control | dose: 200.0 mg/kg/injection, schedule: Q04DX003 (ip), vehicle: other 91 % of control | dose: 400.0 mg/kg/injection, schedule: Q04DX003 (ip), vehicle: other 94 % of control
